Reference: patent US20190275027A1 (priority 2018, published 2019)
Where “and” joins values, the source holds several entries; their conditions need not be identical. Equal values may be shown once. Read-outs that look alike come from different tables or passages of the source.

How the values were obtained:
[1] = system: MARV; test: organism not typed; type: cell-based, Marburg virus; conditions: read-out: MARV IC50
[2] = system: wild type Ebola virus, Mayinga strain; test: microbe, parasite or virus in culture; type: cell-based; conditions: for IC50: Zaire ebolavirus, Huh-7, 24 h, read-out: EBOV IC50
[3] = system: EBOV virus; set-up: species or system BALB/c mice; conditions: mouse, in vivo
[4] = physchem; conditions: pH 7.4, aqueous buffer, kinetic from dmso stock
[5] = system: EBOV; set-up: species or system murine; conditions: mouse, in vivo

SMILES | IC50 [1] | IC50 [2] | other results
COc1cc2c(cc1OC)[C@@H](Cc1cccc(Oc3cccc(C[C@@H]4c5cc6c(cc5CCN4C)OCO6)c3)c1)N(C)CC2 [B3-36^R,R] | 495 ± 66 nM | 413 ± 51 nM | 
COc1ccc2c(c1)CCN(C)[C@@H]2Cc1ccc(Oc2ccc(C[C@@H]3c4ccc(OC)cc4CCN3C)cc2)cc1 [B4-14^RR] |  |  | EBOV activity (in words) [2]: good activity
COc1cc2c(cc1OC)[C@@H](Cc1ccc(Oc3ccc(C[C@@H]4c5cc(OC)c(OC)cc5CCN4C)cc3OC)c(OC)c1)N(C)CC2 [Compound 1] | 506 ± 87 nM | 730 ± 60 nM | % Survival [3]: 100%; Efficacy against Ebola virus challenge (in words) [3]: statistically significant improvement when compared to TETN and saline; Survival [3]: 7/7; solubility [4]: > 100 µM; Efficacy (in words) [5]: good efficacy; Survival [5]: 4/7 and 0/7
COc1cc2c(cc1OC)[C@@H](Cc1ccc(Oc3cc(C[C@@H]4c5cc(OC)c(OC)cc5CCN4C)ccc3OC)c(OC)c1)N(C)CC2 [Compound 2] | 1240 ± 269 nM | 1050 ± 90 nM | % Survival [3]: 100%; Efficacy against Ebola virus challenge (in words) [3]: statistically significant improvement when compared to TETN and saline; Survival [3]: 7/7; solubility [4]: > 100 µM; % Survival [5]: 57% and 43%; Efficacy (in words) [5]: good efficacy; Survival [5]: 4/7 and 3/7; Efficacy (in words) ([5]; 5 mg/kg): moderate efficacy
COc1cc2c(cc1OC)[C@@H](Cc1ccc(OC)c(Oc3cc(C[C@@H]4c5cc(OC)c(OC)cc5CCN4C)ccc3OC)c1)N(C)CC2 [Compound 3] | 1100 ± 222 nM | 1220 ± 119 nM | % Survival [3]: 71%; Efficacy against Ebola virus challenge (in words) [3]: good efficacy; Survival [3]: 5/7; solubility [4]: > 100 µM
COc1cc2c(cc1OC)[C@@H](Cc1ccc(Oc3ccc(C[C@@H]4c5cc(OC)c(OC)cc5CCN4C)cc3OC)nc1)N(C)CC2 [Compound 4] | 566 ± 108 nM | 446 ± 57 nM | % Survival [3]: 71%; Efficacy against Ebola virus challenge (in words) [3]: good efficacy; Survival [3]: 5/7; solubility [4]: > 100 µM
COc1ccc2c(c1)CCN(C)[C@@H]2Cc1ccc(Oc2ccc(C[C@@H]3c4cc(OC)c(OC)cc4CCN3C)cn2)c(OC)c1 [Compound 5] | 414 ± 70 nM | 505 ± 32 nM | solubility [4]: > 100 µM
COc1ccc2c(c1)CCN(C(C)C)[C@@H]2Cc1ccc(Oc2ccc(C[C@@H]3c4ccc(OC)cc4CCN3C(C)C)cc2)cc1 [Compound 41] | 188 ± 40 nM | 249 ± 19 nM | 
COc1ccc2c(c1)CCN(Cc1ccccc1)[C@@H]2Cc1ccc(Oc2ccc(C[C@@H]3c4ccc(OC)cc4CCN3Cc3ccccc3)cc2)cc1 [Compound 42] | > 1000 nM | > 1000 nM | 
COc1cc(C[C@@H]2c3cc4c(cc3CCN2C)OCO4)ccc1Oc1ccc(C[C@@H]2c3cc4c(cc3CCN2C)OCO4)cc1OC [Compound 45] | 339 ± 56 nM | 372 ± 34 nM | 
COc1cc2c(cc1OC)[C@@H](Cc1ccc(Oc3cccc(C[C@@H]4c5cc(OC)c(OC)cc5CCN4C)c3)nc1)N(C)CC2 [Compound 48] | 1490 ± 320 nM | 875 ± 110 nM | 
COc1cc2c(cc1OC)[C@@H](Cc1cccc(Oc3cc(C[C@@H]4c5cc(OC)c(OC)cc5CCN4C)ccc3OC)c1)N(C)CC2 [Compound 51] | 1180 ± 179 nM | 1090 ± 72 nM | 
COc1ccc(C[C@@H]2c3cc4c(cc3CCN2C)OCO4)cc1Oc1cc(C[C@@H]2c3cc4c(cc3CCN2C)OCO4)ccc1OC [Compound 52] | 585 ± 154 nM | 615 ± 40 nM | 
COc1ccc2c(c1)CCN(C)[C@@H]2Cc1cccc(Oc2cc(C[C@@H]3c4ccc(OC)cc4CCN3C)ccc2OC)c1 [Compound B3-12] | 839 ± 158 nM | 1110 ± 179 nM | 
CN1CCc2cc3c(cc2[C@H]1Cc1cccc(Oc2cccc(C[C@@H]4c5cc6c(cc5CCN4C)OCO6)c2)c1)OCO3 [Compound B3-35] | 537 ± 60 nM | 789 ± 97 nM | 
COc1ccc2c(c1)CCN(C)[C@@H]2Cc1ccc(OC)c(Oc2cc(C[C@@H]3c4ccc(OC)cc4CCN3C)ccc2OC)c1 [Compound B3-42] | 418 ± 47 nM | 617 ± 45 nM | 
COc1ccc2c(c1)CCN(C)[C@@H]2Cc1ccc(Oc2ccc(C[C@@H]3c4ccc(OC)cc4CCN3C)cc2OC)cc1 [Compound B4-17] | 133 ± 26 nM | 134 ± 16 nM | 
COc1ccc2c(c1)CCN(C)[C@@H]2Cc1cccc(Oc2ccc(C[C@@H]3c4cc(OC)c(OC)cc4CCN3C)cc2)c1 [Compound B4-21] | 467 ± 93 nM | 424 ± 82 nM | 
COc1ccc2c(c1)CCN(C)[C@@H]2Cc1ccc(Oc2ccc(C[C@@H]3c4cc(OC)c(OC)cc4CCN3C)cc2)cc1 [Compound B4-24] | 130 ± 49 nM | 125 ± 26 nM | 
COc1cc2c(cc1OC)[C@@H](Cc1ccc(Oc3cccc(C[C@@H]4c5cc(OC)c(OC)cc5CCN4C)c3)cc1)N(C)CC2 [Compound B4-26] | 770 ± 89 nM | 530 ± 81 nM | 
COc1ccc2c(c1)CCN(C)[C@@H]2Cc1cccc(Oc2ccc(C[C@@H]3c4cc5c(cc4CCN3C)OCO5)cc2)c1 [Compound B4-31] | 1180 ± 105 nM | 775 ± 156 nM | 
COc1ccc2c(c1)CCN(C)[C@@H]2Cc1ccc(Oc2ccc(C[C@@H]3c4cc5c(cc4CCN3C)OCO5)cc2)cc1 [Compound B4-34] | 148 ± 48 nM | 65 ± 16 nM | 
COc1cc2c(cc1OC)[C@@H](Cc1cccc(Oc3ccc(C[C@@H]4c5cc6c(cc5CCN4C)OCO6)cc3)c1)N(C)CC2 [Compound B4-36] | 487 ± 88 nM | 415 ± 43 nM | 
COc1ccc2cc1Oc1ccc(cc1)C[C@H]1c3cc(c(OC)cc3CCN1C)Oc1c(OC)c(OC)cc3c1[C@H](C2)N(C)CC3 [TETN, tetrandrine, reference compound] | 370 ± 95 nM | 292 ± 31 nM | % Survival [3]: 57%; Survival [3]: 4/7; solubility [4]: > 100 µM
